In patent publication US20220008425A1, “Pharmaceutical Composition for Treating B-Cell Lymphoma” (FUNDAN UNIVERSITY SHANGHAI CANER CENTER, priority 2018, published 2022):
Entries after “also recorded” stand apart in the source; their conditions may differ.

Experiments:
[1] = system: LY8-RCHO cells; settings: 48 hours
Method: (§1) Further, we constructed LY8 and NU-DUL-1 cells resistant to chemotherapeutic drugs. Briefly, LY8-ORI and NU-DUL-1-ORI cells were treated with doxorubicin (Selleck Chemicals, Houston, Tex.) and vincristine (Selleck Chemicals, Houston, Tex.) at a clinical ratio of 50:1.4 by increasing the concentration. […] These cells were then treated with 2 μg/mL of 4-hydroperoxycyclophosphamide (4-HC) (Santa Cruz Biotechnology, Inc., Santa Cruz, Calif.) every 21 days for 3 cycles. The obtained CHO-resistant cells are referred to as LY8-CHO and NU-DUL-1-CHO, respectively. CHO-resistant cells were treated with doxorubicin, vincristine, and 4-HC every 22 days to maintain drug tolerance to CHO. […] To maintain RCHO resistance, LY8-RCHO cells and NU-DUL-1-RCHO cells were treated with 32 μg/mL of rituximab containing 20% (v/v) of NHS every 22 days, followed by treatment with doxorubicin, vincristine, and 4-HC. After 48 hours of treatment with doxorubicin, vincristine and 4-HC, drug resistance to CHO and RCHO was determined by a series of CCK-8 assays.
(§2) Cells were seeded in a 96-well plate at a density of 1×10^4/100 μL/well. Cells were pretreated with IPI-145, abemaciclib, AZD4547, PF-573228, R788, or saracatinib at increasing concentrations with or without CHO for 48 hours prior to performing CytoTox-Glo™ cytotoxicity assay. We performed cytotoxicity assay by using a CytoTox-Glo™ cytotoxicity assay kit (Promega Inc., Madison, Wis.) according to their instructions. Briefly, 50 μL of CytoTox-Glo™ cytotoxicity assay reagent was added to all wells, mixed by orbital shaking, and then incubated for 15 minutes at room temperature. Luminescence of experimental dead cells was detected with a Synergy HT microplate reader (BioTek, Biotek Winooski, Minn.), wherein 50 μL of lysate was added to all wells, mixed and incubated for 15 minutes at room temperature prior to detection of total luminescence. Cytotoxicity was calculated according to the following formula: Cytotoxicity (%)=Experimental dead cell luminescence/Total luminescence×100%.

[2] = system: NU-DUL-1-RCHO cells; settings: 48 hours
Method: as §1, §2

[3] = system: AKT phosphorylation, SOX2, CDK6 and CSC-associated molecules in LY8-RCHO cells; test: Immunoblot analysis; type: cell-based, human
[4] = system: AKT phosphorylation, SOX2, FGFR1/2 and CSC-associated molecules in NU-DUL-1-RCHO cells; test: Immunoblot analysis; type: cell-based, human
[5] = system: LY8-RCHO-Luc cells; test: Transplantation model, bioluminescence tumor growth and survival; type: in vivo; settings: SCID mice bearing LY8-RCHO-Luc cells; for tumor growth (total photon flux): dosing per Table 1
Source text: (§3) Construction of a transplantation model: we transduced LY8-RCHO cells and NU-DUL-1-RCHO cells with lentiviruses overexpressing the firefly luciferase gene to generate stable cells expressing firefly luciferase, referred to as LY8-RCHO-Luc cells and NU-DUL-1-RCHO-Luc cells, respectively. 8-week-old female SCID mice were purchased from SLAC (Shanghai laboratory animal center). The LY8-RCHO-Luc cells and NU-DUL-1-RCHO-Luc cells were resuspended in PBS prior to intraperitoneal injection of 1.5×10^7 cells per mouse. After intraperitoneal injection of the LY8-RCHO-Luc cells, mice were randomized into 6 groups (7 mice in every group) and given saline, R-CHOP, duvelisib, abemaciclib, R-CHOP+duvelisib, and R-CHOP+abemaciclib, respectively. Mice inoculated with the NU-DUL-1-RCHO-Luc cells were randomly divided into 6 groups (7 mice in every group), and were given saline, R-CHOP, duvelisib, AZD4547, R-CHOP+duvelisib, and R-CHOP+AZD4547, respectively. The drug dosing method based on one course of clinical use is shown in Table 1; the R-CHOP regimen was clinically used to treat DLBCL, while duvelisib, abemaciclib, and AZD4547 were tested in clinical trials (associated NCT numbers are NCT02576275, NCT01739309, and […], respectively). Tumor growth was monitored by bioluminescence at day 50 and day 90 after inoculation. For in vivo luminescence imaging, D-luciferin (Promega, Madison, Wis.) was intraperitoneally injected into mice (150 mg/kg). After 10 minutes, the mice were anesthetized by intraperitoneal injection of pentobarbital (50 mg/kg) and then their bioluminescence intensity was examined by using an In Vivo MS FX PRO system (Bruker Corporation, Billerica, Mass.). Luminescence images were captured with an exposure time of 30 seconds and the signal intensity of the tumor was measured by using Bruker MI software. The survival time of each mouse was recorded. Surviving mice were euthanized and dissected 120 days after inoculation and no intraperitoneal tumors were found. Tumor tissue was collected from moribund mice and fixed with 4% formalin. All animal experiments were performed in strict accordance with the experiment protocol approved by the animal ethics committee of Shanghai school of medicine of Fudan university.

[6] = system: NU-DUL-1-RCHO-Luc cells; test: as above; type: in vivo; settings: SCID mice bearing NU-DUL-1-RCHO-Luc cells
Source text: as §3

[7] = inhibitor alone at increasing concentrations
[8] = inhibitor at increasing concentrations with CHO
[9] = inhibitor combined with R-CHOP, experiment ended at day 120
[10] = regimen or inhibitor used alone, dosing per Table 1

## C[C@H](Nc1ncnc2[nH]cnc12)c1cc2cccc(Cl)c2c(=O)n1-c1ccccc1 [duvelisib]
[1]; [7]
  cytotoxicity (induction of cell death), inhibitor used alone: only slightly somewhat cytotoxic; also recorded: negligible effect on direct induction of cell death
[1]; [8]
  reversal of resistance to CHO (cytotoxicity of CHO), inhibitor co-treated with CHO: significantly enhanced the cytotoxicity of CHO in the two RCHO-resistant cell lines in a dose-dependent manner; also recorded: significantly reversed resistance of RCHO-resistant cells to CHO
[2]; [7]
  cytotoxicity (induction of cell death), inhibitor used alone: only slightly somewhat cytotoxic; also recorded: negligible effect on direct induction of cell death
[2]; [8]
  reversal of resistance to CHO (cytotoxicity of CHO), inhibitor co-treated with CHO: significantly enhanced the cytotoxicity of CHO in the two RCHO-resistant cell lines in a dose-dependent manner; also recorded: significantly reversed resistance of RCHO-resistant cells to CHO
[3]
  AKT phosphorylation and expression of SOX2 and CDK6: reduces the expression of SOX2 and CDK6 by inhibiting AKT phosphorylation; also recorded: prevented phosphorylation of AKT and induced degradation of SOX2, thereby reducing expression of CDK6
  levels of CSC-associated molecules (OCT4, NANOG, KLF4, c-MYC, CD34, CD133): significantly reduced levels of CSC-associated molecules in the RCHO-resistant cells
[4]
  AKT phosphorylation and expression of SOX2 and FGFR1/2: reduces expression of SOX2 and FGFR1/2 by inhibiting AKT phosphorylation; also recorded: prevented phosphorylation of AKT and induced degradation of SOX2
  levels of CSC-associated molecules (OCT4, NANOG, KLF4, c-MYC, CD34, CD133): significantly reduced levels of CSC-associated molecules in the RCHO-resistant cells
[5]; inhibitor combined with R-CHOP
  tumor growth (total photon flux): significantly inhibited tumor growth; also recorded: completely inhibited tumor development
[5]; [9]
  survival: prolonged the survival rate compared with R-CHOP or an inhibitor alone; also recorded: all treated mice survived until the end of the experiment at day 120
[5]; regimen or inhibitor used alone, vs saline, day 50 and 90
  tumor growth (total photon flux): neither duvelisib nor abemaciclib alone inhibited tumor growth or prolonged the survival rate; also recorded: accelerated tumor growth compared with normal saline, although this difference was not statistically significant
[6]; inhibitor combined with R-CHOP, dosing per Table 1
  tumor growth (total photon flux): completely inhibit tumor growth
[6]; [9]
  survival time: prolong the survival time to the end of the experiment at day 120
[6]; [10]
  survival time: had no efficacy on tumor growth and the survival time
  tumor growth (total photon flux): had no efficacy on tumor growth and the survival time
